Test results published in patent US8269043B2, “Bicyclic aryl sphingosine 1-phosphate analogs” (Biogen Idec MA Inc., priority 2008, dated 2012).

Tested on: circulating lymphocytes
Assay: Lymphopenia assay: circulating lymphocytes after oral gavage
Format: in vivo
Details: Mus musculus, Lymphocyte, po, C57bl/6 male mice, oral gavage 0.5 and 5 mg/kg in 30% HPCD, blood 5 and 24 hours after administration
Procedure: Measurement of circulating lymphocytes: Compounds were dissolved in 30% HPCD. Mice (C57bl/6 male, 6-10 week-old) were administered 0.5 and 5 mg/kg of a compound via oral gavage. 30% HPCD was included as a negative control.
Blood was collected from the retro-orbital sinus 5 and 24 hours after drug administration under short isoflurane anesthesia. Whole blood samples were subjected to hematology analysis. Peripheral lymphocyte counts were determined using an automated analyzer (HEMAVET™ 3700). Three mice were used to assess the lymphocyte depletion activity of each compound screened.
Compounds of formula (I) induced full lymphopenia at times as short as 3 hours or less to as long as 48 hours or more; for example, 4 to 36 hours, or 5 to 24 hours. In some cases, a compound of formula induced full lymphopenia at 5 hours and partial lymphopenia at 24 hours. The dosage required to induce lymphopenia can be in the range of, e.g., 0.001 mg/kg to 100 mg/kg; or 0.01 mg/kg to 10 mg/kg. The dosage can be 10 mg/kg or less, such as 5 mg/kg or less, 1 mg/kg or less, or 0.1 mg/kg or less

Row | Structure (SMILES) | ED50
1 | CC(C)CCOc1cccc(Oc2ccc3cc(C(N)(CO)CO)ccc3c2)c1 [Example 198, 2-Amino-2-(6-(3-(isopentyloxy)phenoxy)naphthalen-2-yl)propane-1,3-diol] | 0.5 to 5 mg/kg
2 | NC(CO)(CO)c1ccc2cc(Oc3cccc(OCC4CCCCC4)c3)ccc2c1 [Example 199, 2-Amino-2-(6-(3-(cyclohexylmethoxy)phenoxy)naphthalen-2-yl)propane-1,3-diol] | < 0.5 mg/kg
3 | NC(CO)(CO)c1ccc2cc(Oc3cccc(OCCCC(F)(F)F)c3)ccc2c1 [Example 200, 2-Amino-2-(6-(3-(4,4,4-trifluorobutoxy)phenoxy)naphthalen-2-yl)propane-1,3-diol] | < 0.5 mg/kg
4 | CC(N)(CCC(=O)O)c1ccc2c(C(F)(F)F)c(O[C@H]3CC[C@H](C(C)(C)C)CC3)ccc2c1 (stereo partly drawn) [Example 211, 4-amino-4-(6-(trans-4-tert-butylcyclohexyloxy)-5-(trifluoromethyl)naphthalen-2-yl) pentanoic acid] | 0.5 to 5 mg/kg
5 | CC(C)(C)[C@H]1CC[C@H](Oc2ccc3cc([C@@](C)(N)CO)ccc3c2C2CC2)CC1 [Example 215, (R)-2-amino-2-(6-(trans-4-tert-butylcyclohexyloxy)-5-cyclopropylnaphthalen-2-yl)propan-1-ol] | < 0.5 mg/kg
6 | Cc1c(O[C@H]2CC[C@H](C(C)(C)C)CC2)ccc2cc([C@@](C)(N)CO)ccc12 [Example 217, (R)-2-amino-2-(6-(trans-4-tert-butylcyclohexyloxy)-5-methylnaphthalen-2-yl)propan-1-ol] | < 0.5 mg/kg
7 | C=Cc1c(O[C@H]2CC[C@H](C(C)(C)C)CC2)ccc2cc([C@@](C)(N)CO)ccc12 [Example 219, (R)-2-amino-2-(6-(trans-4-tert-butylcyclohexyloxy)-5-vinylnaphthalen-2-yl)propan-1-ol] | < 0.5 mg/kg
8 | CC(C)(C)[C@H]1CC[C@H](Oc2ccc3cc([C@@](C)(N)CO)ccc3c2-c2ccc(OC(F)(F)F)cc2)CC1 [Example 221, (R)-2-amino-2-(6-(trans-4-tert-butylcyclohexyloxy)-5-(4-(trifluoromethoxy)phenyl)naphthalen-2-yl)propan-1-ol] | > 5 mg/kg
9 | CC(C)(C)[C@H]1CC[C@H](Oc2ccc3cc([C@@](C)(N)CO)ccc3c2-c2ccc(S(C)(=O)=O)cc2)CC1 [Example 223, (R)-2-amino-2-(6-(trans-4-tert-butylcyclohexyloxy)-5-(4-(methylsulfonyl)phenyl)naphthalen-2-yl)propan-1-ol] | > 5 mg/kg
10 | CC(C)(C)[C@H]1CC[C@H](Oc2ccc3cc([C@@](C)(N)CO)ccc3c2-c2cncnc2)CC1 [Example 225, (R)-2-amino-2-(6-(trans-4-tert-butylcyclohexyloxy)-5-(pyrimidin-5-yl)naphthalen-2-yl)propan-1-ol] | > 5 mg/kg
11 | CCOc1ccc(-c2c(O[C@H]3CC[C@H](C(C)(C)C)CC3)ccc3cc([C@@](C)(N)CO)ccc23)cc1 [Example 227, (R)-2-amino-2-(6-(trans-4-tert-butylcyclohexyloxy)-5-(4-ethoxyphenyl)naphthalen-2-yl)propan-1-ol] | 0.5 to 5 mg/kg
12 | CC(C)(C)[C@H]1CC[C@H](Oc2ccc3cc([C@@](C)(N)CO)ccc3c2-c2ccccc2)CC1 [Example 229, (R)-2-amino-2-(6-(trans-4-tert-butylcyclohexyloxy)-5-phenylnaphthalen-2-yl)propan-1-ol] | > 5 mg/kg
13 | CC(C)(C)[C@H]1CC[C@H](Oc2ccc3cc([C@@](C)(N)CO)ccc3c2-c2cccc(Cl)c2)CC1 [Example 231, (R)-2-amino-2-(6-(trans-4-tert-butylcyclohexyloxy)-5-(3-chlorophenyl)naphthalen-2-yl)propan-1-ol] | > 5 mg/kg
14 | CC(C)(C)[C@H]1CC[C@H](Oc2ccc3cc([C@@](C)(N)CO)ccc3c2-c2ccc(Cl)cc2)CC1 [Example 233, (R)-2-amino-2-(6-(trans-4-tert-butylcyclohexyloxy)-5-(4-chlorophenyl)naphthalen-2-yl)propan-1-ol] | > 5 mg/kg
